Results from US12306171B2, “Method for detecting indicator of immune-related disease” (MANDOM CORPORATION, priority 2018, dated 2025).

Columns and labels:
[1] = system: adhesive cell in peripheral blood mononuclear cells collected from an asthmatic patient; experiment: Morphology and adhesive cells of peripheral blood mononuclear cells from an asthmatic patient after culture in steroid-containing medium; type: cell-based, human; conditions: 10 μM steroid, 0.1 v/v % DMSO, 10 v/v % FBS RPMI1640, 37° C., 24 hours; asthmatic patient PBMC; FIG. 10
Description: Using 10 mL of peripheral blood collected from an asthmatic patient and 15 mL of a human lymphocyte-separation medium (manufactured by GE Healthcare, trade name: Ficoll-Paque PLUS), peripheral blood mononuclear cells were separated from the peripheral blood, according to a density gradient centrifugation method. Some of the separated peripheral blood mononuclear cells were cultured in a steroid-containing medium (RPMI1640 medium containing 10 μM hydrocortisone or 10 μM dexamethasone, 0.1 v/v % DMSO and 10 v/v % FBS) or a control medium (RPMI1640 medium containing 0.1 v/v % DMSO and 10 v/v % FBS) in a culture vessel at 37° C. for 24 hours. The morphology and state of the obtained cell were observed by an inverted phase contrast microscope (manufactured by Leica Microsystems, trade name: DM IL LED). […]

[2] = system: primary cilium of immune cell (peripheral blood mononuclear cells from an asthmatic patient); experiment: Formation rate of primary cilium in immune cell after culture in steroid-containing medium; type: cell-based, human; conditions: 10 μM steroid, 37° C., 24 hours; nonadherent cells from asthmatic patient PBMC; FIG. 11
Description: Using 10 mL of peripheral blood collected from an asthmatic patient and 15 mL of a human lymphocyte-separation medium (manufactured by GE Healthcare, trade name: Ficoll-Paque PLUS), peripheral blood mononuclear cells were separated from the peripheral blood, according to a density gradient centrifugation method. Some of the separated peripheral blood mononuclear cells were fixed with 4 v/v % PFA-containing PBS solution. The fixed cells were blocked and permeabilized by incubating the cells in a blocking/permeabilizing agent, to give a sample containing uncultured cells.
Some of the separated peripheral blood mononuclear cells were cultured in a steroid-containing medium (RPMI1640 medium containing 10 μM hydrocortisone or 10 μM dexamethasone, 0.1 v/v % DMSO and 10 v/v % FBS) at 37° C. for 24 hours. Then, nonadherent cells suspended in each medium were collected. Immediately after collection, each of the collected cells was fixed with 4 v/v % PFA-containing PBS solution. […]
Next, the total number of immune cells and the number of primary cilia in an immune cell were obtained by using observations of cells contained in each sample. Then, the formation rate of a primary cilium in an immune cell was calculated in accordance with the formula (Ic): [Formation rate of primary cilium in immune cell]=[(Number of primary cilia in immune cell)/(Total number of immune cells)]×100 (Ic). […]

C[C@]12CCC(=O)C=C1CC[C@@H]1[C@@H]2[C@@H](O)C[C@@]2(C)[C@H]1CC[C@]2(O)C(=O)CO [hydrocortisone]
presence of adhesive cell after culture (morphology, phase contrast microscope) [1]: the adhesive cell disappears | formation rate of a primary cilium of the immune cell in the nonadherent cell, versus control medium [2]: significantly lower
